Results on twelve compounds are retold here after patent US7829560B2, “1,4-disubstituted naphthalenes as inhibitors of P38 MAP kinase” (Arqule, Inc., priority 2004, dated 2010).

Structures are written as SMILES. “And” between values parts separate entries of the source, which are not always exact repeats. Identical values can stand only once.

One data set addresses T1, p38α (Homo sapiens, UniProt Q16539).
T1 construct: p38 MAP Kinases are recombinant human full-length proteins with an amino-terminal GST fusion; GST (N); purchased Upstate Biotechnology Inc; host or cells: E. coli
Briefly: p38 MAP Kinase assay: inhibition of ATF2 phosphorylation, ELISA. It is filed as biochemical. Particulars: ATF2 phosphorylation; read-out: [ENZ] P38 ALPHA, IC50, ELISA. The method in brief: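 GST-tagged full-length human p38 MAP kinase with GST-ATF2 (aa 19–96; 1.25 μM) and 40 μM ATP in HEPES pH 7.5 buffer, without (Method I) or with (Method II) 1% human serum albumin. Compound pre-incubated 15 min at room temperature; reaction 30 min at 37 °C; ATF2 Thr69 phosphorylation measured by ELISA (A450).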

The subject of data set [1] is TNFα release from THP-1 cells. Briefly: Inhibition of TNFα release from LPS-stimulated THP-1 cells, ELISA. It counts as cell-based. The conditions noted are these: Homo sapiens, THP-1, THP-1 cells, read-out: [CELL] THP-1, IC50, TNF ALPHA, ELISA. The method in brief: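 Human THP-1 monocytes, 10^6 cells/ml in RPMI with 10% FBS, no serum or 1% HSA, preincubated 30 min at 37 °C with compound (≤0.5% DMSO), then stimulated with 10 μg/ml LPS for 18 h. Supernatant TNFα measured by ELISA; IC50 from non-linear dose-response regression.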

T1 sequence (Q16539 whole entry, the tested form may be a part): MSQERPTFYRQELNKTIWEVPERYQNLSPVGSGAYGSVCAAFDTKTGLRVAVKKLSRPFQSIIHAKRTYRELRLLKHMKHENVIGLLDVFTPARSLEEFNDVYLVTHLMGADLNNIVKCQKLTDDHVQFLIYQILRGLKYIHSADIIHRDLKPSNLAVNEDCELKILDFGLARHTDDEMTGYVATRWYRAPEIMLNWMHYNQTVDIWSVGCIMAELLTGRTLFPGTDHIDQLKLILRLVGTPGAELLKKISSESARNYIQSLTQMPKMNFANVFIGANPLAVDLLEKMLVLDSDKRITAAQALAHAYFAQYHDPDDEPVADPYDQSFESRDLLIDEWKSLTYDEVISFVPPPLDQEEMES

`N#Cc1ccc(C(=O)Nc2ccc(OCCN3CCOCC3)c3ccccc23)cc1` [Compound B36, 4-Cyano-N-[4-(2-morpholin-4-ylethoxy)-1-naphthyl]benzamide]: the melting point was 213 to 214 °C. Moreover, the IC50 on p38α worked out at 5.09 µM. Also, the 50% inhibitory concentration (IC50) in data set [1] is 6.62 µM.

Consider `O=C(Nc1ccc(OCCN2CCOCC2)c2ccccc12)c1cccc(N2CCCCC2)c1` [Compound B48, N-[4-(2-Morpholin-4-yl-ethoxy)-naphthalen-1-yl]-3-piperidin-1-yl-benzamide], for which the melting point fell in the range of 147 to 148 °C. Moreover, at p38α, the IC50 amounted to 0.464 µM. The IC50 in data set [1] amounted to 7.65 µM.

For the compound `O=C(Nc1ccc(OCCN2CCOCC2)c2ccccc12)c1ccc2snnc2c1` [Compound B50, N-[4-(2-Morpholin-4-ylethoxy)-1-naphthyl]-1,2,3-benzothiadiazole-5-carboxamide], the melting point lay within 188 to 190 °C. In addition, on p38α, the IC50 was 1.24 µM. Moreover, the IC50 in data set [1] is 9.18 µM.

For the compound `O=C(Nc1ccc(OCCN2CCOCC2)c2ccccc12)c1cc(N2CCOCC2)ncn1` [Compound B54, 6-Morpholin-4-yl-pyrimidine-4-carboxylic acid [4-(2-morpholin-4-yl-ethoxy)-naphthalen-1-yl]-amide], the melting point lay within 50 to 51 °C. For the same compound, the IC50 on p38α was more than 10 µM. Further, in data set [1], the IC50 was more than 10 µM.

Take `O=C(Nc1ccc(OCCN2CCOCC2)c2ccccc12)c1cccc(-n2cccc2)c1` [Compound B57, N-[4-(2-Morpholin-4-yl-ethoxy)-naphthalen-1-yl]-3-pyrrol-1-yl-benzamide]: the melting point was 142 to 143 °C. The IC50 on p38α was found to be 1.19 µM. For the same compound, the IC50 in data set [1] stood at 2.65 µM.

`O=C(Nc1ccc(OCCN2CCOCC2)c2ccccc12)c1cccc(-c2cccnc2)c1` [Compound B58, N-[4-(2-Morpholin-4-yl-ethoxy)-naphthalen-1-yl]-3-pyridin-3-yl-benzamide] registered a melting point of 77 to 78 °C. For the same compound, the IC50 on p38α was 8.81 µM. The IC50 in data set [1] was more than 10 µM.

Regarding `O=C(Nc1ccc(OCCN2CCCC2=O)c2ccccc12)c1cc(F)cc(N2CCCCC2)c1` [Compound B181, 3-Fluoro-N-{4-[2-(2-oxopyrrolidin-1-yl)ethoxy]-1-naphthyl}-5-piperidin-1-ylbenzamide], the melting point fell in the range of 161 to 162 °C. On p38α, the IC50 came to 2.35 µM.

In turn, `O=C(Nc1ccc(OCc2ccncc2)c2ccccc12)c1cc(F)cc(N2CCOCC2)c1` [Compound B191, 3-Fluoro-5-morpholin-4-yl-N-[4-(pyridin-4-ylmethoxy)-1-naphthyl]benzamide] registered a melting point of 157 to 159 °C. In addition, the IC50 at p38α is 0.0527 µM and 0.061 µM.

Compound `O=C(Nc1ccc(OCCN2CCCC2=O)c2ccccc12)c1cc(F)cc(N2CCOCC2)c1` [Compound B224, 3-Fluoro-5-morpholin-4-yl-N-{4-[2-(2-oxopyrrolidin-1-yl)ethoxy]-1-naphthyl}benzamide] displayed a melting point of 172 to 173 °C. Besides, the IC50 at p38α turned out to be 6.55 µM.

`O=C(Nc1ccc(OCCN2CCOCC2)c2ccccc12)c1cc(F)cc(OC2CCOCC2)c1` [Compound B226, 3-Fluoro-N-[4-(2-morpholin-4-ylethoxy)-1-naphthyl]-5-(tetrahydro-2H-pyran-4-yloxy)benzamide] returned a melting point of 75 to 77 °C. In addition, the half-maximal inhibitory concentration (IC50) at p38α was 5.39 µM.

Turning to `CCC1CCC(Oc2cc(F)cc(C(=O)Nc3ccc(OCc4ccncc4)c4ccccc34)c2)CC1` (stereo not drawn) [Compound B228, 3-[(4-Ethylcyclohexyl)oxy]-5-fluoro-N-[4-(pyridin-4-ylmethoxy)-1-naphthyl]benzamide], the melting point was in the range of 93 to 95 °C. On p38α, the IC50 is more than 10 µM.

For the compound `O=C(Nc1ccc(Oc2ccnc(N3CCCC3)n2)c2ccccc12)c1cc(F)cc(N2CCCCC2)c1` [Compound B377, 3-Fluoro-piperidin-1-yl-N-{4-[(2-pyrrolidin-1-ylpyrimidin-4-yl)oxy]-1-naphthyl}benzamide], the melting point fell in the range of 111 to 113 °C. In data set [1], the IC50 came out at 0.515 µM.
